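48-hour exposure; five concentrations; linearly interpolated endpoints. At the GI50, growth is halved.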 Activity calls are given as the source filed them. Rule as the data show it: active = GI50 up to about 1.1 µM and inactive = higher.
Key:
Assay in all cases: NCI-60 cell line screen, 48 h
BT-549 = system: BT-549
DU-145 = system: DU-145
HCT-116 = system: HCT-116
HOP-62 = system: HOP-62
Hs-578T = system: Hs-578T
K562 = system: K562
MCF7 = system: MCF7
MDA-MB-435 = system: MDA-MB-435
MDA-N = system: MDA-N
MOLT-4 = system: MOLT-4
OVCAR-3 = system: OVCAR-3
OVCAR-8 = system: OVCAR-8
SF-539 = system: SF-539
SK-MEL-28 = system: SK-MEL-28
SK-MEL-2 = system: SK-MEL-2
SN12C = system: SN12C
SNB-75 = system: SNB-75
UACC-62 = system: UACC-62
UO-31 = system: UO-31

Compound	GI50 (BT-549)	GI50 (DU-145)	GI50 (HCT-116)	GI50 (HOP-62)	GI50 (Hs-578T)	GI50 (K562)	GI50 (MCF7)	GI50 (MDA-MB-435)	GI50 (MDA-N)	GI50 (MOLT-4)	GI50 (OVCAR-3)	GI50 (OVCAR-8)	GI50 (SF-539)	GI50 (SK-MEL-28)	GI50 (SK-MEL-2)	GI50 (SN12C)	GI50 (SNB-75)	GI50 (UACC-62)	GI50 (UO-31)
COc1nc2ncc([C@@H](O)[C@H](O)CO)nc2c(=O)n1C	> 100 µM (inactive)	> 100 µM (inactive)	> 100 µM (inactive)	> 100 µM (inactive)	> 100 µM (inactive)	> 100 µM (inactive)	> 100 µM (inactive)	> 100 µM (inactive)	> 100 µM (inactive)	> 100 µM (inactive)	> 100 µM (inactive)	> 100 µM (inactive)	> 100 µM (inactive)	> 100 µM (inactive)	> 100 µM (inactive)	> 100 µM (inactive)	> 100 µM (inactive)	> 100 µM (inactive)	> 100 µM (inactive)
c1ccc(COC[C@H]2C3OCC([C@H](OCc4ccccc4)[C@H]3OCc3ccccc3)N2Cc2ccccc2)cc1 (stereo not given in full)	> 53.3 µM (inactive)	> 48.2 µM (inactive)	23.5 µM (inactive)	> 55.2 µM (inactive)	> 49.1 µM (inactive)	12.4 µM (inactive)	> 56 µM (inactive)	> 55.2 µM (inactive)	> 53.2 µM (inactive)	6.44 µM (inactive)	17.4 µM (inactive)	> 50 µM (inactive)	> 59 µM (inactive)	> 53.2 µM (inactive)	> 49.2 µM (inactive)	> 49 µM (inactive)	21.1 µM (inactive)	29.7 µM (inactive)	> 46.1 µM (inactive)
O=c1cc(N2CCCC2)[nH]c(=O)n1-c1ccc(Cl)cc1	> 100 µM (inactive)	> 100 µM (inactive)	> 100 µM (inactive)	> 100 µM (inactive)	> 100 µM (inactive)	> 100 µM (inactive)	> 100 µM (inactive)	> 100 µM (inactive)	> 100 µM (inactive)	> 100 µM (inactive)	> 100 µM (inactive)	> 100 µM (inactive)	> 100 µM (inactive)	> 100 µM (inactive)	> 100 µM (inactive)	> 100 µM (inactive)	> 100 µM (inactive)	> 100 µM (inactive)	
CCCCCCCCCCCCCCCCCCNc1ccn(C2OC(CO)C(OP(=O)(O)OCC(O)COP(=O)(O)OCC3OC(n4cc(F)c(NCCCCCCCCCCCCCCCCCC)nc4=O)CC3O)C2O)c(=O)n1 (stereo not given)	> 50 µM (inactive)	> 50 µM (inactive)	> 50 µM (inactive)	> 50 µM (inactive)	> 50 µM (inactive)	> 50 µM (inactive)	> 50 µM (inactive)	> 50 µM (inactive)	> 50 µM (inactive)		> 50 µM (inactive)	> 50 µM (inactive)	> 50 µM (inactive)	> 50 µM (inactive)	> 50 µM (inactive)	> 50 µM (inactive)	> 50 µM (inactive)	> 50 µM (inactive)	> 50 µM (inactive)
O=C(OCCN=c1c2ccccc2ccc2ccccc12)c1ccc([N+](=O)[O-])cc1	> 100 µM (inactive)	> 100 µM (inactive)	> 100 µM (inactive)	> 100 µM (inactive)	> 100 µM (inactive)	> 100 µM (inactive)	> 100 µM (inactive)	> 100 µM (inactive)	> 100 µM (inactive)	> 100 µM (inactive)	> 100 µM (inactive)	> 100 µM (inactive)	> 100 µM (inactive)	> 100 µM (inactive)	> 100 µM (inactive)	> 100 µM (inactive)	> 100 µM (inactive)	> 100 µM (inactive)	> 100 µM (inactive)
O=C(O)c1cc(/N=C/c2ccccc2O)cc(C(=O)O)c1	> 100 µM (inactive)	> 100 µM (inactive)	> 100 µM (inactive)	> 100 µM (inactive)	> 100 µM (inactive)	> 100 µM (inactive)	> 100 µM (inactive)	> 100 µM (inactive)	> 100 µM (inactive)	86.9 µM (inactive)	15.3 µM (inactive)	> 100 µM (inactive)	> 100 µM (inactive)	> 100 µM (inactive)	> 100 µM (inactive)	> 100 µM (inactive)	> 100 µM (inactive)	> 100 µM (inactive)	> 100 µM (inactive)
Cn1c2ccccc2c(=O)c2cccc(C(=O)NCC(=O)O)c21	> 100 µM (inactive)	> 100 µM (inactive)	> 100 µM (inactive)	> 100 µM (inactive)	> 100 µM (inactive)	> 100 µM (inactive)	> 100 µM (inactive)	> 100 µM (inactive)	> 100 µM (inactive)	> 100 µM (inactive)	> 100 µM (inactive)	> 100 µM (inactive)	> 100 µM (inactive)	> 100 µM (inactive)	> 100 µM (inactive)	> 100 µM (inactive)	88.9 µM (inactive)	> 100 µM (inactive)	> 100 µM (inactive)
O=c1c2cnccc2cc2c3ccccc3ccn12	65.6 µM (inactive)	> 100 µM (inactive)	31.8 µM (inactive)	> 100 µM (inactive)	71.8 µM (inactive)	37.9 µM (inactive)	13.2 µM (inactive)	97.3 µM (inactive)	> 100 µM (inactive)	5.21 µM (inactive)	> 100 µM (inactive)	11.6 µM (inactive)	> 100 µM (inactive)	> 100 µM (inactive)	> 100 µM (inactive)	61.2 µM (inactive)	61 µM (inactive)	4.7 µM (inactive)	23.1 µM (inactive)
COc1cc(/C=C/c2cc(/C=C/c3ccc(O)c(OC)c3)oc(=O)c2)ccc1O	3.23 µM (inactive)	0.553 µM (active)	3.67 µM (inactive)	4.92 µM (inactive)	4.54 µM (inactive)	4.43 µM (inactive)	3.33 µM (inactive)	3.38 µM (inactive)	4.7 µM (inactive)	3.48 µM (inactive)	2.36 µM (inactive)	4.12 µM (inactive)	6.79 µM (inactive)	6.32 µM (inactive)	3.98 µM (inactive)	5.53 µM (inactive)	0.393 µM (active)	4.69 µM (inactive)	3.01 µM (inactive)
Cn1cccc1-c1ccc(-c2ccc(CO)[se]2)[se]1	20.2 µM (inactive)	17.5 µM (inactive)	6.34 µM (inactive)	21.6 µM (inactive)	22.7 µM (inactive)	0.986 µM (active)	0.906 µM (active)	4.91 µM (inactive)	8.53 µM (inactive)	8.79 µM (inactive)	4.02 µM (inactive)	27.7 µM (inactive)	11.5 µM (inactive)	16.6 µM (inactive)	28.8 µM (inactive)	68.9 µM (inactive)	6.08 µM (inactive)	9.57 µM (inactive)	35.7 µM (inactive)
CC(C)=CCc1c2c(c3occ(-c4ccc(O)cc4)c(=O)c3c1O)CC(C(C)(C)O)O2 (stereo not given) [SENEGALENSIN]	17 µM (inactive)	15.5 µM (inactive)	16.7 µM (inactive)	18.7 µM (inactive)	36.1 µM (inactive)	17.2 µM (inactive)	12.8 µM (inactive)	16.6 µM (inactive)	21.4 µM (inactive)	11.7 µM (inactive)	14.4 µM (inactive)	17 µM (inactive)	20.1 µM (inactive)	24.3 µM (inactive)	14.6 µM (inactive)	19.6 µM (inactive)	17.8 µM (inactive)	16.4 µM (inactive)	10 µM (inactive)
Cc1ccc(S(=O)(=O)N/N=C2\C3CC4CC(C3)C2C4)cc1 (stereo not given)	> 100 µM (inactive)	> 10 µM (inactive)	> 10 µM (inactive)	> 100 µM (inactive)	> 100 µM (inactive)	> 100 µM (inactive)	> 100 µM (inactive)	> 100 µM (inactive)	> 100 µM (inactive)	> 100 µM (inactive)	> 100 µM (inactive)	> 100 µM (inactive)	> 100 µM (inactive)	> 100 µM (inactive)	> 100 µM (inactive)	> 100 µM (inactive)	> 100 µM (inactive)	> 100 µM (inactive)	> 100 µM (inactive)
CC[C@@]1(O)C(=O)OCc2c1cc1n(c2=O)Cc2c-1nc1ccc(O)cc1c2[Si](C)(C)C(C)(C)C [AR-67]	< 0.0157 µM (active)	< 0.01 µM (active)	< 0.01 µM (active)		0.339 µM (active)	< 0.0219 µM (active)	< 0.01 µM (active)	< 0.01 µM (active)	< 0.0132 µM (active)	< 0.01 µM (active)	0.0261 µM (active)	< 0.0123 µM (active)	< 0.01 µM (active)	0.0317 µM (active)	0.125 µM (active)	< 0.01 µM (active)	< 0.01 µM (active)	< 0.01 µM (active)	< 0.01 µM (active)
Nc1nc(N)c2cc(Sc3cccc(C(F)(F)F)c3)ccc2n1 [WR-159412]	6.07 µM (inactive)	0.982 µM (active)	0.237 µM (active)	2.12 µM (inactive)	2.66 µM (inactive)	0.0883 µM (active)	2.86 µM (inactive)	0.662 µM (active)	0.371 µM (active)	0.271 µM (active)	3.87 µM (inactive)		3.17 µM (inactive)	4.46 µM (inactive)	2.23 µM (inactive)	0.729 µM (active)	3.17 µM (inactive)	0.755 µM (active)	1.2 µM (inactive)
COc1ccccc1OC(=O)/C=C/c1ccccc1	> 100 µM (inactive)	> 100 µM (inactive)	> 100 µM (inactive)	52.1 µM (inactive)	> 100 µM (inactive)		> 100 µM (inactive)	> 100 µM (inactive)	> 100 µM (inactive)	17.4 µM (inactive)	> 100 µM (inactive)	> 100 µM (inactive)	> 100 µM (inactive)	> 100 µM (inactive)	> 100 µM (inactive)	> 100 µM (inactive)	> 100 µM (inactive)	> 100 µM (inactive)	> 100 µM (inactive)

From ChEMBL document CHEMBL1201862, “PubChem BioAssay data set” (2004)
